Non-standard residues stand in square brackets, D forms with d. Primed or numbered codes have the meaning given here. No end group written: not given here. Ida(3) = iminodiacetic acid linker, Lys side-chain amines bound to its two carboxyl groups; Dip = N[C@H](C(=O)O)C(c1ccccc1)c1ccccc1; d(hPhe) = N[C@H](CCc1ccccc1)C(=O)O; Cha = N[C@@H](CC1CCCCC1)C(=O)O; Phg = N[C@H](C(=O)O)c1ccccc1
System: HUVECs
Assay type: cell-based
Settings: HUVEC proliferation, bFGF at 10 ng/ml or VEGF at 5 ng/ml, 48 hours, BrdU incorporation; read-out: IC50 on HUVECs
Summary of the method: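 HUVECs seeded at 5,000 cells/well in EBM with 2% FCS, adhered ≥12 hours, then stimulated with bFGF 10 ng/ml or VEGF 5 ng/ml plus varying peptide concentrations. After 48 hours at 37 ° C, 5% CO2, proliferation inhibition read by BrdU incorporation.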

Substance | IC50
362 (Ac-ARRRRQRVA[Cha]YFK-NH2; not fully specified (residue 13); also: homodimer: Lys13 side chains joined by Ida (iminodiacetic acid) linker) [compound 362] | < 10 µM
363 (Ac-ARRRRQRVAWYFK-NH2; not fully specified (residue 13); also: homodimer of residues 1-13 via Ida linker on K13 side chain) [compound 363] | < 10 µM
364 (Ac-ARRRRQRVAEYFK-NH2; not fully specified (residue 13); also: homodimer of residues 1-13 via Ida linker on K13 side chain) [compound 364] | > 30 µM
365 (Ac-ARRRRQRVATYFK-NH2; not fully specified (residue 13); also: homodimer of residues 1-13 via Ida linker on K13 side chain) [compound 365] | > 30 µM
366 (Ac-ARRRRQRVAHYFK-NH2; not fully specified (residue 13); also: homodimer of residues 1-13 via Ida linker on K13 side chain) [compound 366] | > 30 µM
367 (Ac-ARRRRQRVAPYFK-NH2; not fully specified (residue 13); also: homodimer of residues 1-13 via Ida linker on K13 side chain) [compound 367] | > 30 µM
368 (Ac-ARRRRQRVA[Dip]YFK-NH2; not fully specified (residue 13); printed as [AcARRRRQRVA3,3-diphenylAlaYFK*]; also: homodimer via Ida linker on Lys13 side chain, Boc on Ida amine) [compound 368] | < 10 µM
369 (Ac-ARRRRQRVAQYFK-NH2; not fully specified (residue 13); also: homodimer via Ida linker on Lys13 side chain, Boc on Ida amine) [compound 369] | > 30 µM
370 (Ac-ARRRRQRVAFYFK-NH2; not fully specified (residue 13); also: homodimer via Ida linker on Lys13 side chain, Boc on Ida amine) [compound 370] | < 10 µM
371 (Ac-ARRRRQRVAYYFK-NH2; not fully specified (residue 13); also: homodimer via Ida linker on Lys13 side chain, Boc on Ida amine) [compound 371] | < 10 µM
373 (Ac-ARRRRQRVA[d(hPhe)]YFK(Ida(3))-NH2; also: homodimer via Ida linker on Lys13 side chain, Boc on Ida amine) [compound 373] | 10 to 30 µM
374 (Ac-ARRRRQRVA[Phg]YFK(Ida(3))-NH2; also: homodimer via Ida linker on Lys13 side chain, Boc on Ida amine) [compound 374] | < 10 µM
377 (Ac-ARRRRQRVAIMFK-NH2; not fully specified (residue 13); also: homodimer via Ida linker on Lys13 side chain, Boc on Ida amine) [compound 377] | < 10 µM
378 (Ac-ARRRRQRVAIQFK-NH2; not fully specified (residue 13); also: homodimer via Ida linker on Lys13 side chain, Ida amine Boc) [compound 378] | < 10 µM
379 (Ac-ARRRRQRVAISFK-NH2; not fully specified (residue 13); also: homodimer via Ida linker on Lys13 side chain, Ida amine Boc) [compound 379] | < 10 µM
380 (Ac-ARRRRQEVAIYFK-NH2; not fully specified (residue 13); also: homodimer via Ida linker on Lys13 side chain, Ida amine Boc) [compound 380] | < 10 µM
382 (Ac-ARRRRQRVAIVFK-NH2; not fully specified (residue 13); also: homodimer via Ida linker on Lys13 side chain, Ida amine Boc) [compound 382] | < 10 µM
383 (Ac-ARRRRQFVAIYFK-NH2; not fully specified (residue 13); also: homodimer via Ida linker on Lys13 side chain, Ida amine Boc) [compound 383] | < 10 µM
384 (Ac-ARRRRQGVAIYFK-NH2; not fully specified (residue 13); also: homodimer via Ida linker on Lys13 side chain, Ida amine Boc) [compound 384] | < 10 µM
385 (Ac-ARRRRQMVAIYFK-NH2; not fully specified (residue 13); also: homodimer via Ida linker on Lys13 side chain, Ida amine Boc) [compound 385] | < 10 µM
386 (Ac-ARRRRQNVAIYFK-NH2; not fully specified (residue 13); also: homodimer via Ida linker on Lys13 side chain, Ida amine Boc) [compound 386] | < 10 µM
387 (Ac-ARRRRQAVEIYFK-NH2; not fully specified (residue 13); also: homodimer via Ida linker on Lys13 side chain, Ida amine Boc) [compound 387] | < 10 µM
388 (Ac-ARRRRQAVFIYFK-NH2; not fully specified (residue 13); also: homodimer via Ida linker on Lys13 side chain, Ida amine Boc) [compound 388] | < 10 µM
389 (Ac-ARRRRQAVGIYFK-NH2; not fully specified (residue 13); also: homodimer via Ida linker on Lys13 side chain, Ida amine Boc) [compound 389] | < 10 µM
390 (Ac-ARRRRQAVMIYFK; not fully specified (residue 13, C-terminus); also: homodimer of residues 1-13 via Ida linker at Lys13 side chain) [compound 390] | < 10 µM
391 (Ac-ARRRRQAVNIYFK; not fully specified (residue 13, C-terminus); also: homodimer of residues 1-13 via Ida linker at Lys13 side chain) [compound 391] | < 10 µM
392 (Ac-ARRRRQAVPIYFK; not fully specified (residue 13, C-terminus); also: homodimer of residues 1-13 via Ida linker at Lys13 side chain) [compound 392] | > 30 µM
393 (Ac-ARRRRQAVQIYFK; not fully specified (residue 13, C-terminus); also: homodimer of residues 1-13 via Ida linker at Lys13 side chain) [compound 393] | < 10 µM
394 (Ac-ARRRRQAVSIYFK; not fully specified (residue 13, C-terminus); also: homodimer of residues 1-13 via Ida linker at Lys13 side chain) [compound 394] | < 10 µM
395 (Ac-ARRRRQAVTIYFK; not fully specified (residue 13, C-terminus); also: homodimer of residues 1-13 via Ida linker at Lys13 side chain) [compound 395] | < 10 µM

— US20070203066A1, “Compositions and methods for inhibiting cellular proliferation” (priority 2005, published 2007)
